Test results taken from PubChem BioAssay AID1743 (Vanderbilt High Throughput Screening Facility, 2009).

molecular target: Muscarinic acetylcholine receptor M1 (Rattus norvegicus) (UniProt P08482); assay: activation of mutant rat M1 receptor calcium signal, mechanism study for M1 allosteric modulator project, cell-based, Y381A mutant, CHO-K1 (AID 1743); conditions: Fluo-4 calcium flux
Sequence (P08482 whole entry Y381A, looked up): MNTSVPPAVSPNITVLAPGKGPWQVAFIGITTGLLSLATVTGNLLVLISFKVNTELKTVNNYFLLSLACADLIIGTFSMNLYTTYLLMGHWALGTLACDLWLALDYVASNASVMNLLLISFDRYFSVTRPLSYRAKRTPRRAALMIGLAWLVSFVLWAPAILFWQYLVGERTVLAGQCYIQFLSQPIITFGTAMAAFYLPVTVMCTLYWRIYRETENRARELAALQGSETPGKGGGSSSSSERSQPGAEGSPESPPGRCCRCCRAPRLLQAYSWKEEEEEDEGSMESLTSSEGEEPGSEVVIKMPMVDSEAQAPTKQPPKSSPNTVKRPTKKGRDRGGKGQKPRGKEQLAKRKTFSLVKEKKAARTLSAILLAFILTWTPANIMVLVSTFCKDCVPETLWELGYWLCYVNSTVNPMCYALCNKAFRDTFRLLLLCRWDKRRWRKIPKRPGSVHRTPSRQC

EC50, active:
CCOC(=O)N1CCC(NCCNC(=O)c2ccccc2C)CC1 379 nM
CCOC(=O)N1CCC(NCCNC(=O)c2cccs2)CC1 1230 nM
CCOC(=O)N1CCC(NCCNC(=O)c2ccccc2)CC1 304 nM
